For orientation: MIC means the smallest concentration in the dilution series that meets the test's criterion for growth inhibition. High values mean a less susceptible organism, low ones a more susceptible organism.

Experimental findings from DBAASP are described below.

Some test systems named below: Acinetobacter sp.; Klebsiella aerogenes; Klebsiella sp.; Proteus mirabilis; Providencia stuartii; Escherichia coli 23A; Escherichia coli 27A; Staphylococcus aureus 6A; Escherichia coli K-12.
Test in all cases: ≥ marks a high value that may be exact or a test limit, other limits are often not marked, values filed in µg/mL are converted to µM
For experiment [1], the system named is Escherichia coli NCTC 10418.
In experiment [2] the test system is Escherichia coli NCTC 8007.
The subject of experiment [3] is Staphylococcus aureus NCTC 10571.
For experiment [4], the system named is Candida albicans ATCC 2002.
The test system of experiment [5] is Escherichia coli ATCC 25922.
The test system of experiment [6] is Pseudomonas aeruginosa 3A.
The subject of experiment [7] is Pseudomonas aeruginosa 7A.
Experiment [8] deals with Staphylococcus aureus 15A.
Experiment [9] concerns Staphylococcus aureus ATCC 2592.
The test system of experiment [10] is Acinetobacter baumannii ATCC 19606.
Experiment [11] has as its system Candida albicans ATCC 90028.
Experiment [12] concerns Cryptococcus neoformans var. grubii H99.
For experiment [13], the system named is Klebsiella pneumoniae ATCC 700603.
In experiment [14] the test system is Pseudomonas aeruginosa ATCC 27853.
Experiment [15] relates to Staphylococcus aureus ATCC 43300.
Experiment [16] relates to Staphylococcus aureus JE2.

In brackets after ≈: the same amount, converted by molar mass.

As to `CSCC[C@H](NC(=O)[C@H](CC(N)=O)NC(=O)[C@H](CCCN=C(N)N)NC(=O)[C@H](CCC(N)=O)NC(=O)[C@H](Cc1c[nH]c2ccccc12)NC(=O)[C@H](CCC(N)=O)NC(=O)[C@@H](N)Cc1ccccc1)C(=O)N[C@@H](CCCN=C(N)N)C(=O)N[C@@H](CCCCN)C(=O)N[C@H](C(=O)N[C@@H](CCCN=C(N)N)C(=O)NCC(=O)N1CCC[C@H]1C(=O)N1CCC[C@H]1C(=O)N[C@H](C(=O)N[C@@H](CO)C(=O)O)C(C)C)C(C)C` [FQWQRNMRKVRGPPVS], the MIC against Acinetobacter sp. is 2 µM (≈ 3.97 µg/mL); in [1], at least 500 µM; in [2], at least 500 µM; in the experiment on Klebsiella aerogenes, at least 1000 µM; against Klebsiella sp., at least 1000 µM; against Proteus mirabilis, at least 1000 µM. The values for the MIC (with Providencia stuartii; in experiment [3]) were at least 1000 µM and at least 500 µM, respectively.

Take `CC[C@H](C)[C@H](NC(=O)[C@@H](NC(=O)[C@@H]1CCCN1C(=O)[C@H](CCSC)NC(=O)[C@@H](N)Cc1ccccc1)[C@@H](C)CC)C(=O)NCC(=O)N[C@@H](CCCN=C(N)N)C(=O)N[C@@H](CC(C)C)C(=O)N[C@@H](CCSC)C(=O)N[C@@H](CO)C(=O)NCC(=O)N[C@@H](CO)C(=O)N[C@@H](CC(C)C)C(=O)O` [FMPIIGRLMSGSL]: the MIC in experiment [4] is 21.1 µM (≈ 30 µg/mL); with Escherichia coli 23A, 5.28 µM (≈ 7.5 µg/mL); against Escherichia coli 27A, 10.6 µM (≈ 15 µg/mL); in [5], 5.28 µM (≈ 7.5 µg/mL); in [6], 2.64 µM (≈ 3.75 µg/mL); in [7], 2.64 µM (≈ 3.75 µg/mL). Also, the figures for the MIC (in experiment [8]; against Staphylococcus aureus 6A; in experiment [9]) were 0.703 µM (≈ 1 µg/mL), 2.64 µM (≈ 3.75 µg/mL) and 1.34 µM (≈ 1.9 µg/mL), respectively.

In the case of `CC[C@H](C)[C@H](NC(=O)[C@@H](NC(=O)[C@H](CO)NC(=O)[C@H](C)NC(=O)[C@@H](NC(=O)[C@H](CCCCN)NC(=O)[C@H](CCCCN)NC(=O)[C@@H](NC(=O)[C@@H](NC(=O)[C@H](CCC(=O)O)NC(=O)[C@H](Cc1ccccc1)NC(=O)[C@H](CC(C)C)NC(=O)CN)C(C)C)[C@@H](C)CC)C(C)C)C(C)C)C(=O)NCC(=O)NCC(=O)N[C@@H](CC(C)C)C(=O)O` [GLFEVIKKVASVIGGL], the MIC was over 19.6 µM in experiment [10]; 19.6 µM (≈ 32 µg/mL) in experiment [11]; 9.82 µM (≈ 16 µg/mL) in experiment [12]; over 19.6 µM in experiment [5]; 19.6 µM (≈ 32 µg/mL) in the experiment on Escherichia coli K-12; over 19.6 µM in [13]. The MIC in [14] is over 19.6 µM; in experiment [15], 19.6 µM (≈ 32 µg/mL); in experiment [16] it was at least 39.3 µM.
